# Experiments:
# [1] = Instantaneous solubility in deionized water at room temperature; assay type: physicochemical; settings: for instantaneous solubility: water
# Description: The composition can optionally be expressed in terms of the concentration of one or more steviol glycoside(s). Beneficially, it has been founds that compound(s) SG101-104 can improve solubility of steviol glycosides in an aqueous solution, and therefore compositions can be prepared having a greater concentration of steviol glycosides in solution. […] Clear solutions without precipitates are considered soluble. Unless indicated otherwise herein, the term “solubility” refers to “equilibrium solubility.”
# Instantaneous solubility is determined by mixing steviol glycoside with deionized water vigorously for 10 minutes at room temperature. […] Clear solutions without precipitates are considered soluble.
# [2] = literature; cited from earlier work
# [3] = Equilibrium solubility (80° C. for 15 minutes, cooled to room temperature, observed up to 4 days); assay type: physicochemical; settings: for equilibrium solubility (soluble/insoluble): 80° C. 15 minutes, then room temperature up to 4 days; for equilibrium solubility: heated to 80° C. for 15 minutes, room temperature, at least 4 days
# Description: The composition can optionally be expressed in terms of the concentration of one or more steviol glycoside(s). Beneficially, it has been founds that compound(s) SG101-104 can improve solubility of steviol glycosides in an aqueous solution, and therefore compositions can be prepared having a greater concentration of steviol glycosides in solution. […] Clear solutions without precipitates are considered soluble. Unless indicated otherwise herein, the term “solubility” refers to “equilibrium solubility.” […]
# [4] = literature; cited from earlier work; remark: listed apart in the source
# [5] = Sensory evaluation (tasting) of glycoside solutions in reverse osmosis water, Test A and Test B; assay type: in vivo; settings: for summary of sensory evaluation: summary of Example 5
# Procedure: (§1) Glycoside samples (SG101-104) were isolated and purified from fermentation broth, purified Rebs A, B, and D are of leaf origin and Reb M is chemically synthesized. All samples were dissolved in reverse osmosis water at the concentrations indicated. Unsweetened black tea was used in one set of experiments. Approximately 2-3 milliliters of each solution was tasted and sensory evaluations conducted by two individuals. In one set of experiments a third individual also tasted.
# [6] = Sucrose equivalent value (SEV) in citric acid buffer; assay type: in vivo; settings: for SEV: citric acid buffer at pH=3.0; for Sucrose equivalent value / relative sweetness scale-sucrose = 1: 250 ppm in citric buffer, pH = 3.0
# Description: Sweetness may be determined by measuring sucrose equivalent values (SEV) using methods and processes well known to those skilled in the art. For example, SEV may be determined by measuring sweetness equivalence to a reference sucrose solution. Typically, taste panelists are trained to detect and scale sweetness of reference sucrose solutions containing between 10 g to 150 g/kg sucrose. A sweetener composition containing one or more glycosides are then tasted at a series of dilutions to determine the concentration of the sweetener composition that is as sweet as a given sucrose reference. For example, if a sweetener composition is as sweet as 50 g/kg of sucrose solution in a citric acid buffer at pH 3.1, then the sweetener composition is assigned a SEV of 5.
# For example, SEVs for SG101 and SG102 at 200 ppm are 0.6 and 1.0, respectively; SEV=1.6 for SG101 at 500 ppm and SEV=1.2 at 400 ppm; and SEV=1.5 for SG102 at 400 ppm (as measured in a citric acid buffer at pH=3.0). Thus, at ppm<500, SG101 may be employed as a sensory modifier, and at ppm<400, SG102 may be employed as a sensory modifier in a beverage.
# [7] = Sensory evaluation (tasting) of glycoside solutions in unsweetened black tea, Test A; assay type: in vivo
# Procedure: as §1
# [8] = Test A, 200 ppm in water, three experienced taste testers
# [9] = SG compound alone in tea, about 200 ppm (Table 7)
smiles,measurement,setting,value
"C=C1C[C@@]23CC[C@H]4[C@@](C)(CCC[C@@]4(C)C(=O)O[C@@H]4O[C@H](CO)[C@@H](O)[C@H](O)[C@H]4O[C@@H]4O[C@H](CO)[C@@H](O)[C@H](O)[C@H]4O)[C@@H]2CC[C@]1(O[C@@H]1O[C@H](CO)[C@@H](O)[C@H](O[C@@H]2O[C@H](CO)[C@@H](O)[C@H](O)[C@H]2O)[C@H]1O[C@@H]1O[C@H](CO)[C@@H](O)[C@H](O)[C@H]1O)C3 [Reb D, rebaudioside D]",instantaneous solubility (soluble/insoluble),"[1]; 0.08% in deionized water, clear solution without precipitates = soluble",insoluble
same,instantaneous solubility (soluble/insoluble),[1]; 0.10% in deionized water,insoluble
same,instantaneous solubility (soluble/insoluble),[1]; 0.15% in deionized water,insoluble
same,instantaneous solubility (soluble/insoluble),[1]; 0.20% in deionized water,insoluble
same,instantaneous solubility,[1],< 0.08%
same,instantaneous solubility,[1]; listed as rebaudioside D,less than 0.08%
same,taste properties,[2],slow onset of sweetness and was very clean
same,times sweeter than sucrose,[2],200-220 times
same,equilibrium solubility (soluble/insoluble),[3]; 0.08%,soluble
same,equilibrium solubility (soluble/insoluble),[3]; 0.10%,insoluble
same,equilibrium solubility (soluble/insoluble),[3]; 0.15%,insoluble
same,equilibrium solubility (soluble/insoluble),[3]; 0.20%,insoluble
same,equilibrium solubility,[3],0.08%
same,aqueous solubility,[4],low solubility in water at room temperature
"C=C1C[C@@]23CC[C@H]4[C@@](C)(CCC[C@@]4(C)C(=O)O[C@@H]4O[C@H](CO)[C@@H](O)[C@H](O)[C@H]4O)[C@@H]2CC[C@]1(O[C@@H]1O[C@H](CO)[C@@H](O)[C@H](O[C@@H]2O[C@H](CO)[C@@H](O)[C@H](O)[C@H]2O)[C@H]1O[C@@H]1O[C@H](CO)[C@@H](O)[C@H](O)[C@H]1O)C3 [Reb A, rebaudioside A]",taste properties,[2],has off-taste issues
C=C1C[C@@]23CCC4[C@](C)(C(=O)OC5OC(CO)C(O)C(O)C5OC5OC(CO)C(O)C(O)C5O)CCC[C@@]4(C)[C@@H]2CCC1(OC1OC(COC2OC(CO)C(O)C(O)C2O)C(O)C(OC2OC(CO)C(O)C(O)C2O)C1OC1OC(CO)C(O)C(O)C1O)C3 (stereo partly drawn) [SG101],sensory comments,[5]; [8],"not sweet, astringent, cloying—mouth drying on the tongue"
same,summary of sensory evaluation,[5],less sweet than SG103 and SG104
same,SEV,[6]; 200 ppm,0.6
same,SEV,[6]; 400 ppm,1.2
same,SEV,[6]; 500 ppm,1.6
same,sensory comments,[7]; [9],"Zero sweetness, seems less than in water, naked tea"
"C=C1C[C@@]23CC[C@H]4[C@@](C)(CCC[C@@]4(C)C(=O)O[C@@H]4O[C@H](CO)[C@@H](O)[C@H](O[C@@H]5O[C@H](CO)[C@@H](O)[C@H](O)[C@H]5O)[C@H]4O[C@@H]4O[C@H](CO)[C@@H](O)[C@H](O)[C@H]4O)[C@@H]2CC[C@]1(O[C@@H]1O[C@H](CO)[C@@H](O)[C@H](O[C@@H]2O[C@H](CO)[C@@H](O)[C@H](O)[C@H]2O)[C@H]1O[C@@H]1O[C@H](CO)[C@@H](O)[C@H](O)[C@H]1O)C3 [Reb M, rebaudioside M]",sensory comments,[5]; [8],"Typical mid-sweet for Reb M, fairly well rounded, quick rise, some tailing, some bitter"
same,sensory comments,"[5]; Test A, 400 ppm in water","Higher sweet, faster onset than 200 ppm, cotton candy sweetness—skews to HFCS longer linger, sharper bitterness—but not oppressing sweetness"
same,sensory comments,"[5]; Test B, Reb M alone in water, concentration not stated (200-398 ppm prepared)","clean, sweet, spiky sweetness"
same,instantaneous solubility (soluble/insoluble),[1]; 0.10% in deionized water,soluble
same,instantaneous solubility (soluble/insoluble),[1]; 0.13% in deionized water,soluble
same,instantaneous solubility (soluble/insoluble),[1]; 0.20% in deionized water,insoluble
same,instantaneous solubility (soluble/insoluble),[1]; 0.30% in deionized water,insoluble
same,instantaneous solubility,[1],at least 0.13%
same,instantaneous solubility,[1]; listed as rebaudioside M,about 0.13%
same,sensory comments,"[7]; Reb M alone in tea, concentration not stated (200.4 and 401.0 ppm prepared)","Nice subtle sweetness, feels like sugar, but with long linger very good"
same,taste properties,[2],has higher sweetness intensity and is more potent than other steviol glycosides
same,equilibrium solubility (soluble/insoluble),[3]; 0.10%,soluble
same,equilibrium solubility (soluble/insoluble),[3]; 0.13%,soluble
same,equilibrium solubility (soluble/insoluble),[3]; 0.20%,soluble
same,equilibrium solubility (soluble/insoluble),[3]; 0.30%,insoluble
same,equilibrium solubility,[3],at least 0.2%
same,equilibrium solubility,[3]; listed as rebaudioside M,about 0.2%
same,aqueous solubility,[4],poor aqueous solubility and dissolution qualities in beverage formulations
C=C1C[C@@]23CCC4[C@](C)(C(=O)OC5OC(CO)C(O)C(O)C5OC5OC(CO)C(O)C(O)C5O)CCC[C@@]4(C)[C@@H]2CCC1(OC1OC(CO)C(O)C(OC2OC(COC4OC(CO)C(O)C(O)C4O)C(O)C(O)C2O)C1OC1OC(CO)C(O)C(O)C1O)C3 (stereo partly drawn) [SG103],sensory comments,[5]; [8],"as sweet or sweeter than 200 ppm Reb M, more sucrosey, sugary quality characteristics (high fructose corn syrup (HFCS), cotton candy notes) are reminiscent of Reb M at 400 ppm but not as sweet, “fuller” feeling"
same,summary of sensory evaluation,[5],good sole sweeteners
same,Sucrose equivalent value,[6],4.8
same,relative sweetness scale-sucrose = 1,[6],192X
same,sensory comments,[7]; [9],"Slower onset than Reb M by itself, not as sweet as Reb M, slightly more licorice aftertaste"
C=C1C[C@@]23CCC4[C@](C)(C(=O)OC5OC(CO)C(O)C(OC6OC(CO)C(O)C(O)C6O)C5OC5OC(CO)C(O)C(O)C5O)CCC[C@@]4(C)[C@@H]2CCC1(OC1OC(COC2OC(CO)C(O)C(O)C2O)C(O)C(OC2OC(CO)C(O)C(O)C2O)C1OC1OC(CO)C(O)C(O)C1O)C3 (stereo partly drawn) [SG102],sensory comments,[5]; [8],"a bit sweeter than 1-1, sweetness does have quick onset"
same,summary of sensory evaluation,[5],less sweet than SG103 and SG104
same,SEV,[6]; 200 ppm,1.0
same,SEV,[6]; 400 ppm,1.5
same,sensory comments,[7]; [9],"Not sweet, slightly less astringent, some additional roundedness"
C=C1C[C@@]23CCC4[C@](C)(C(=O)OC5OC(CO)C(O)C(OC6OC(CO)C(O)C(O)C6O)C5OC5OC(CO)C(O)C(O)C5O)CCC[C@@]4(C)[C@@H]2CCC1(OC1OC(CO)C(O)C(OC2OC(COC4OC(CO)C(O)C(O)C4O)C(O)C(O)C2O)C1OC1OC(CO)C(O)C(O)C1O)C3 (stereo partly drawn) [SG104],sensory comments,[5]; [8],"as sweet or sweeter than 200 ppm Reb M, more rounded sweetness, enhanced sugar quality effects (sensations reminiscent of sucrose, vanilla), “fuller” feeling"
same,summary of sensory evaluation,[5],good sole sweeteners
same,Sucrose equivalent value,[6],6.5
same,relative sweetness scale-sucrose = 1,[6],260X
same,sensory comments,[7]; [9],"As sweet as Reb M, very sucrosey compared to Reb M, a little back end licorice"
